Read-outs that look alike come from different tables or passages of the source.
Tests used:
[1] = biological target: norepinephrine transporter (NET) (Rattus norvegicus, UniProt Q63380); settings: rat brain membranes; for Ki: read-out: Ki (nM) ± S.E.M. NET
Procedure: Binding affinities of all compounds were evaluated at the DAT, SERT, and NET in rat brain membranes using previously described methods:
Norepinephrine Transporter Binding Assay. Brains from male Sprague-Dawley rats weighing 200-225 g (Taconic Labs, Germantown, N.Y.) were removed, frontal cortex dissected and rapidly frozen. Membranes were prepared by homogenizing tissues in 20 volumes (w/v) of 50 mM Tris containing 120 mM NaCl and 5 mM KCl, (pH 7.4 at 25° C.), using a Brinkman Polytron and centrifuged at 50,000×g for 10 min at 4° C. The resulting pellet was resuspended in buffer, recentrifuged and resuspended in buffer to a concentration of 80 mg/mL. Ligand binding experiments were conducted in assay tubes containing 0.5 mL buffer for 60 min at 0-4° C. […] Nonspecific binding was determined using 1 mM desipramine. Incubations were terminated by rapid filtration through Whatman GF/B filters, presoaked in 0.05% polyethylenimine, using a Brandel R48 filtering manifold (Brandel Instruments Gaithersburg, Md.). The filters were washed twice with 3 mL cold buffer and transferred to scintillation vials. Beckman Ready Value (3.0 mL) was added and the vials were counted using a Beckman 6000 liquid scintillation counter (Beckman Coulter Instruments, Fullerton, Calif.). […] All compounds were tested as racemic mixtures.

[2] = biological target: serotonin transporter (SERT) (Rattus norvegicus (Rat), UniProt P31652); settings: for Ki: rat brain membranes
serotonin transporter (SERT), sequence (P31652 whole entry): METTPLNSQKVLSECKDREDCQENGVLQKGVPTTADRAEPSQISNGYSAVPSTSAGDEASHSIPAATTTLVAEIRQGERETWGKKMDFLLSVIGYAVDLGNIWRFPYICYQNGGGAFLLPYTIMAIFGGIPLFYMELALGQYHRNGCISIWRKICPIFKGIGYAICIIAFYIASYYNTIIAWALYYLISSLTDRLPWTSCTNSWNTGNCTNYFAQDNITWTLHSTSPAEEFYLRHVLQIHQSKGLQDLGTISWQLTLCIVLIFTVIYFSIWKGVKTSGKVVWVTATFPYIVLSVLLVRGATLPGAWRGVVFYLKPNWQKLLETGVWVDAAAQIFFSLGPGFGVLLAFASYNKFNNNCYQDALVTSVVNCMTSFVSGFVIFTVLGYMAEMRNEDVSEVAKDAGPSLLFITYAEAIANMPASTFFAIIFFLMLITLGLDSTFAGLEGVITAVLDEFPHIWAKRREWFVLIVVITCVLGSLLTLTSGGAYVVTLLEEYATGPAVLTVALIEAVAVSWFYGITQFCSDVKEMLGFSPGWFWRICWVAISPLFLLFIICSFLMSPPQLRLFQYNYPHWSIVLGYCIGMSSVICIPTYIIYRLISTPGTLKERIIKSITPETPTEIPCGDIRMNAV
Procedure: Brains from male Sprague-Dawley rats weighing 200-225 g (Taconic Labs, Germantown, N.Y.) were removed, midbrain dissected and rapidly frozen. […] Nonspecific binding was determined using 10 mM fluoxetine. […] The filters were washed twice with 3 mL cold buffer and transferred to scintillation vials. Beckman Ready Value (3.0 mL) was added and the vials were counted the next day using a Beckman 6000 liquid scintillation counter (Beckman Coulter Instruments, Fullerton, Calif.). […] Data were analyzed with GraphPad Prism software (San Diego, Calif.).

[3] = biological target: dopamine transporter (DAT) (Rattus norvegicus (Rat), UniProt P23977); assay: Dopamine Transporter Binding Assay ([3H]WIN 35428, rat striatal membranes)
dopamine transporter (DAT), sequence (P23977 whole entry): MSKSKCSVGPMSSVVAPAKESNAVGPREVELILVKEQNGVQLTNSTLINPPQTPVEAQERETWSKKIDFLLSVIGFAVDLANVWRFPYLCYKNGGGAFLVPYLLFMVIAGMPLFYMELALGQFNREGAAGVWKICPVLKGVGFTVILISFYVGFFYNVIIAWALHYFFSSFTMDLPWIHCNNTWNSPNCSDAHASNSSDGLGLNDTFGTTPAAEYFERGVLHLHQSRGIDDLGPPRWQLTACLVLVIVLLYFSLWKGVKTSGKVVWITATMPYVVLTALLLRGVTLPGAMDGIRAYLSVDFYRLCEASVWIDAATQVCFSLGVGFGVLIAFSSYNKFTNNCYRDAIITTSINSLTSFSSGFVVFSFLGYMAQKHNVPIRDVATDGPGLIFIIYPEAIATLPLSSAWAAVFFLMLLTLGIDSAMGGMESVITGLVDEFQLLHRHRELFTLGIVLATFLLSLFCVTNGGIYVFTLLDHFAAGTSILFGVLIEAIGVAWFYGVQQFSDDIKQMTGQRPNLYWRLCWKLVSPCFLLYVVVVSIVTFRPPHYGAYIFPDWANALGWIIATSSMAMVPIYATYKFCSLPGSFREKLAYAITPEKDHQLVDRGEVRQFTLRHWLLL

Sigma 1 = Sigma 1 (Homo sapiens (Human), UniProt Q99720); assay: Sigma 1 binding affinity (Table 5)
Sigma 1, sequence (Q99720 whole entry): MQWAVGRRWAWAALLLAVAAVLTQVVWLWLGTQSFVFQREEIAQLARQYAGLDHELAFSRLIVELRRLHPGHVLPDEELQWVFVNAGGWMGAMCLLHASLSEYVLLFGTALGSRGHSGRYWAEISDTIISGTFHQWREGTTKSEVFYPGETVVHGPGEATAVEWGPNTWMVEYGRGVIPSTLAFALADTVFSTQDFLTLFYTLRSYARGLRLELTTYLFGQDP

Sigma 2 = Sigma 2 (Homo sapiens (Human), UniProt Q5BJF2); assay: Sigma 2 binding affinity (Table 5)
Sigma 2, sequence (Q5BJF2 whole entry): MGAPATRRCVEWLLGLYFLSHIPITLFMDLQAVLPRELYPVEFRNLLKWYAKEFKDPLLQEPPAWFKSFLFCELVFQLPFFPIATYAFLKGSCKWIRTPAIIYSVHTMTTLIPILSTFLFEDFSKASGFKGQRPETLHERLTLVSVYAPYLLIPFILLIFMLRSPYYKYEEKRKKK

[4] = Table 1 thioacetamides and sulfinylacetamides
[5] = read-out: Ki (nM) ± S.E.M. SERT, Table 1 thioacetamides and sulfinylacetamides
[6] = rat brain membranes, Table 1 thioacetamides and sulfinylacetamides, read-out: Ki (nM) ± S.E.M. DAT
[7] = Table 2 thioethanamines and sulfinylethanamines
[8] = read-out: Ki (nM) ± S.E.M. SERT, Table 2 thioethanamines and sulfinylethanamines
[9] = rat brain membranes, Table 2 thioethanamines and sulfinylethanamines, read-out: Ki (nM) ± S.E.M. DAT
[10] = Table 5 piperazinyl derivatives, read-out: Sigma 1 Ki ± SEM
[11] = read-out: SERT Ki ± SEM, Table 5 piperazinyl derivatives
[12] = Table 5 piperazinyl derivatives, read-out: Sigma 2 Ki ± SEM
[13] = rat brain membranes, Table 5 piperazinyl derivatives, read-out: DAT Ki ± SEM

norepinephrine transporter (NET), sequence (Q63380 1-617): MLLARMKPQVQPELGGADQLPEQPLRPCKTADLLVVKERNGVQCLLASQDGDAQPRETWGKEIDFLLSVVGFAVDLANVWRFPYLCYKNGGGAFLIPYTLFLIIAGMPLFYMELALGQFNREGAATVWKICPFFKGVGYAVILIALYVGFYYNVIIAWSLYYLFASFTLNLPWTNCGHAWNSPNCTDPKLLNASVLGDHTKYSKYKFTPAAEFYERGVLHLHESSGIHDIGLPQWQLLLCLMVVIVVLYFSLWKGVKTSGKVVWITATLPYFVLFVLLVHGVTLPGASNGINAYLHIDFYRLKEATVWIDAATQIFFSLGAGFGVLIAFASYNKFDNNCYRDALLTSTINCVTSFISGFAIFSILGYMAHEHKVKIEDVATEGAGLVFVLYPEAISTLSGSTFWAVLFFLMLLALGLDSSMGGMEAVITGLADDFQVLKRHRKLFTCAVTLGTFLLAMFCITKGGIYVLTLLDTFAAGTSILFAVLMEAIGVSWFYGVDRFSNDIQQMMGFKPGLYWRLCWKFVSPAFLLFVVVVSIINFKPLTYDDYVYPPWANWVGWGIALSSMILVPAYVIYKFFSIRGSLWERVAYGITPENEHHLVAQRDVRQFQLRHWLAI

CCCNC(=O)CSC(c1ccccc1)c1ccccc1 [Compound 2k, 2-(Benzhydrylthio)-N-propylacetamide]
Ki [1, 4]: 55900 nM | Ki [2, 5]: > 550000 nM | Ki [3, 6]: 20700 nM

NC(=O)CSC(c1ccccc1)c1ccccc1 [Compound 2a, 2-(Benzhydrylthio)acetamide]
Ki [1, 4]: > 100000 nM

CCCNC(=O)CSC(c1ccc(Cl)cc1)c1ccc(Cl)cc1 [Compound 2m, 2-((Bis(4-chlorophenyl)methyl)thio)-N-propylacetamide]
Ki [2, 5]: 10300 nM

c1ccc(CCCNCCSC(c2ccccc2)c2ccccc2)cc1 [Compound 4f, N-(2-(benzhydrylthio)ethyl)-3-phenylpropan-1-amine]
Ki [1, 7]: 3910 nM | Ki [2, 8]: 853 ± 127 nM | Ki [3, 9]: 297 ± 28.2 nM

NC(=O)C[S+]([O-])C(c1ccc(C(F)(F)F)cc1)c1ccc(C(F)(F)F)cc1 (centres unmarked) [Compound 3b, 2-((Bis(4-(trifluoromethyl)phenyl)methyl)sulfinyl)acetamide]
Ki [3, 6]: 35400 nM

[O-][S+](CCNCCCc1ccccc1)C(c1ccc(F)cc1)c1ccc(F)cc1 (centres unmarked) [Compound 5c, N-(2-((bis(4-fluorophenyl)methyl)sulfinyl)ethyl)-3-phenylpropan-1-amine]
Ki [1, 7]: 3280 nM | Ki [2, 8]: 1310 nM | Ki [3, 9]: 200 ± 38.7 nM

O=C(CSC(c1ccccc1)c1ccccc1)NCCCc1ccccc1 [Compound 2u, 2-(Benzhydrylthio)-N-(3-phenylpropyl)acetamide]
Ki ([3]; read-out: Ki (nM) ± S.E.M. DAT): 2020 nM

NCC[S+]([O-])C(c1ccccc1)c1ccccc1 (centres unmarked) [Compound 5a, 2-(Benzhydrylsulfinyl)ethan-1-amine]
Ki [2, 8]: 3420 nM

[O-][S+](CCNCCCc1ccccc1)C(c1ccc(Cl)cc1)c1ccc(Cl)cc1 (centres unmarked) [Compound 5d, N-(2-((bis(4-chlorophenyl)methyl)sulfinyl)ethyl)-3-phenylpropan-1-amine]
Ki [1, 7]: 5800 nM | Ki [2, 8]: 542 ± 42.6 nM | Ki [3, 9]: 660 ± 76.9 nM

CCCCNCCSC(c1ccccc1)c1ccccc1 [Compound 4e, N-(2-(benzhydrylthio)ethyl)butan-1-amine]
Ki [1, 7]: 11500 nM | Ki [2, 8]: 5820 nM | Ki [3, 9]: 315 ± 39.9 nM

NC(=O)CSC(c1cccc(Cl)c1)c1cccc(Cl)c1 [Compound 2e, 2-((Bis(3-chlorophenyl)methyl)thio)acetamide]
Ki [1, 4]: 34000 nM | Ki [2, 5]: 739000 nM | Ki [3, 6]: 277 ± 18.3 nM

O=C(CSC(c1ccccc1)c1ccccc1)NCCCCc1ccccc1 [Compound 2y, 2-(Benzhydrylthio)-N-(4-phenylbutyl)acetamide]
Ki ([3]; read-out: Ki (nM) ± S.E.M. DAT): 1160 nM

CC(O)CN1CCN(CCSC(c2ccc(F)cc2)c2ccc(F)cc2)CC1 (racemic) [Compound 9d, 1-(4-(2-((Bis(4-fluorophenyl)methyl)thio)ethyl)piperazin-1-yl)propan-2-ol]
Ki (Sigma 1; [10]): 4.03 ± 0.22 nM | Ki [2, 11]: 1770 ± 234 nM | Ki (Sigma 2; [12]): 84.7 ± 11.9 nM

CNC(=O)CSC(c1ccc(Cl)cc1)c1ccc(Cl)cc1 [Compound 2h, 2-((Bis(4-chlorophenyl)methyl)thio)-N-methylacetamide]
Ki [2, 5]: > 30000 nM

NCCSC(c1ccccc1)c1ccccc1 [Compound 4a, 2-(benzhydrylthio)ethan-1-amine]
Ki [1, 7]: 982 ± 43.3 nM | Ki [2, 8]: 226 ± 30.6 nM | improved affinity at the DAT compared to (±)-modafinil [3]: about 20 fold | Ki ([3]; read-out: Ki (nM) ± S.E.M. DAT): 143 nM

CNC(=O)CSC(c1ccc(Br)cc1)c1ccc(Br)cc1 [Compound 2i, 2-((Bis(4-bromophenyl)methyl)thio)-N-methylacetamide]
Ki [1, 4]: 11200 nM | increase in SERT affinity, halogen-substituted v. unsubstituted analogue ([2]; 2i v. 2g (Table 1), 4c v. 4a (Table 2)): > 50 fold | Ki [2, 5]: 5750 nM | improvement in DAT affinity, halogen-substituted v. unsubstituted analogue [3]: 6 fold | Ki [3, 6]: 3030 nM

[O-][S+](CCNCCCc1ccccc1)C(c1ccc(Br)cc1)c1ccc(Br)cc1 (centres unmarked) [Compound 5e, N-(2-((bis(4-bromophenyl)methyl)sulfinyl)ethyl)-3-phenylpropan-1-amine]
Ki [1, 7]: 7580 nM | Ki [2, 8]: 564 ± 65.3 nM | Ki [3, 9]: 1290 nM

O=C(CSC(c1ccc(Br)cc1)c1ccc(Br)cc1)NCCCCc1ccccc1 [Compound 2z, 2-((Bis(4-bromophenyl)methyl)thio)-N-(4-phenylbutyl)acetamide]
Ki (nM) ± S.E.M. NET [1, 4]: no displacement | Ki [1, 4]: > 100000 nM | Ki [2, 5]: > 100000 nM

O=C(CSC(c1ccc(F)cc1)c1ccc(F)cc1)NCCCc1ccccc1 [Compound 2v, 2-((Bis(4-fluorophenyl)methyl)thio)-N-(3-phenylpropyl)acetamide]
Ki [1, 4]: > 100000 nM | Ki [2, 5]: 3640 nM

c1ccc(C(SCCNCC2CC2)c2ccccc2)cc1 [Compound 4d, 2-(benzhydrylthio)-N-(cyclopropylmethyl)ethan-1-amine]
Ki [2, 8]: 10000 nM | Ki ([3]; read-out: Ki (nM) ± S.E.M. DAT): 437 ± 30.1 nM

CNC(=O)CSC(c1ccccc1)c1ccccc1 [Compound 2g, 2-(Benzhydrylthio)-N-methylacetamide]
Ki [1, 4]: 27300 nM | Ki [2, 5]: > 300000 nM | Ki [3, 6]: 19400 nM

CCCNC(=O)CSC(c1ccc(Br)cc1)c1ccc(Br)cc1 [Compound 2n, 2-((Bis(4-bromophenyl)methyl)thio)-N-propylacetamide]
Ki [1, 4]: 10600 nM

CCCCNC(=O)CSC(c1ccc(F)cc1)c1ccc(F)cc1 [Compound 2s, 2-((Bis(4-fluorophenyl)methyl)thio)-N-butylacetamide]
Ki [3, 6]: 6470 nM

O=C(C[S+]([O-])C(c1ccccc1)c1ccccc1)N1CCN(CCCc2ccccc2)CC1 (centres unmarked) [Compound 12a, 2-(Benzhydrylsulfinyl)-1-(4-(3-phenylpropyl)piperazin-1-yl)ethan-1-one]
Ki (Sigma 1; [10]): 1430 ± 21.1 nM | Ki [2, 11]: 15200 ± 1100 nM | Ki (Sigma 2; [12]): 469 ± 66.4 nM | Ki [3, 13]: 33 ± 2.83 nM

O=C(CSC(c1ccc(Br)cc1)c1ccc(Br)cc1)NCCCc1ccccc1 [Compound 2x, 2-((Bis(4-bromophenyl)methyl)thio)-N-(3-phenylpropyl)acetamide]
Ki [1, 4]: 36300 nM | Ki [2, 5]: 60800 nM | Ki [3, 6]: 244 ± 36.4 nM

[O-][S+](CCNCCCc1ccccc1)C(c1ccccc1)c1ccccc1 (centres unmarked) [Compound 200, reference compound]
Ki [2, 8]: 1000 nM | Ki ([3]; read-out: Ki (nM) ± S.E.M. DAT): 194 ± 16.8 nM

O=C(CSC(c1ccccc1)c1ccccc1)N1CCN(CCCc2ccccc2)CC1 [Compound 11a, 2-(Benzhydrylthio)-1-(4-(3-phenylpropyl)piperazin-1-yl)ethan-1-one]
Ki (Sigma 1): 1120 ± 20.3 nM | Ki (Sigma 2): 773 nM | Ki [3, 13]: 47.2 ± 5.56 nM

[O-][S+](CCN1CCN(CC(O)Cc2ccccc2)CC1)C(c1ccc(F)cc1)c1ccc(F)cc1 (racemic) [Compound 10j, 1-(4-(2-((Bis(4-fluorophenyl)methyl)sulfinyl)ethyl)piperazin-1-yl)-3-phenylpropan-2-ol]
Ki (Sigma 1): 336 ± 42.2 nM | Ki [2, 11]: 4610 ± 562 nM | Ki (Sigma 2; [12]): 176 ± 26.3 nM | Ki [3, 13]: 2.53 ± 0.25 nM

Brc1ccc(C(SCCNCCCc2ccccc2)c2ccc(Br)cc2)cc1 [Compound 4i, N-(2-((bis(4-bromophenyl)methyl)thio)ethyl)-3-phenylpropan-1-amine]
Ki [2, 8]: 163 ± 7.49 nM | Ki ([3]; read-out: Ki (nM) ± S.E.M. DAT): 618 ± 53 nM

CCCCNC(=O)CSC(c1ccccc1)c1ccccc1 [Compound 2r, 2-(Benzhydrylthio)-N-butylacetamide]
Ki [1, 4]: > 100000 nM | Ki [2, 5]: > 100000 nM | Ki [3, 6]: 24000 nM

O=C(C[S+]([O-])C(c1ccc(Br)cc1)c1ccc(Br)cc1)NCCCc1ccccc1 (centres unmarked) [Compound 3g, 2-(Bis(4-bromophenyl)methylsulfinyl)-N-(3-phenylpropyl)acetamide]
Ki [1, 4]: > 100000 nM | Ki [2, 5]: 906 ± 113 nM | Ki [3, 6]: 1290 nM

NC(=O)CSC(c1ccc(Cl)cc1)c1ccc(Cl)cc1 [Compound 100, reference compound]
Ki [2, 5]: 12700 nM | Ki ([3]; read-out: Ki (nM) ± S.E.M. DAT): 2230 nM

CCCCNCC[S+]([O-])C(c1ccccc1)c1ccccc1 (centres unmarked) [Compound 5b, N-(2-(benzhydrylsulfinyl)ethyl)butan-1-amine]
Ki [1, 7]: > 140000 nM | Ki [2, 8]: 64600 nM | Ki [3, 9]: 1580 nM

C=CCNC(=O)CSC(c1ccccc1)c1ccccc1 [Compound 2j, N-Allyl-2-(benzhydrylthio)acetamide]
Ki [1, 4]: > 230000 nM | Ki [2, 5]: > 300000 nM | Ki [3, 6]: 9190 nM

CCCNC(=O)CSC(c1ccc(F)cc1)c1ccc(F)cc1 [Compound 2l, 2-((Bis(4-fluorophenyl)methyl)thio)-N-propylacetamide]
Ki [1, 4]: 61700 nM | Ki [2, 5]: 45100 nM | Ki [3, 6]: 12000 nM

CNC(=O)C[S+]([O-])C(c1ccccc1)c1ccccc1 (centres unmarked) [Compound 3f, 2-(Benzhydrylsulfinyl)-N-methylacetamide]
Ki [1, 4]: > 100000 nM | Ki [2, 5]: > 100000 nM | Ki [3, 6]: 13400 nM

CCCCNC(=O)CSC(c1ccc(Br)cc1)c1ccc(Br)cc1 [Compound 2t, 2-((Bis(4-bromophenyl)methyl)thio)-N-butylacetamide]
Ki [2, 5]: 7090 nM | Ki [3, 6]: 729 ± 69.3 nM

Source: patent publication US9862679B2, “Potent and selective inhibitors of monoamine transporters; method of making; and use thereof” (priority 2013, dated 2018)
